± gives the uncertainty stated by the source.
Experiment: xn = mol fraction of the nth substance listed

CCCCCCCCn1cc[n+](C)c1.O=[N+]([O-])[O-] + CCO
Conditions	viscosity [mPa·s]
293.15 K, 101 kPa, x2 = 0.128	464.3 ± 140

CCN(CC)S(C)(=O)=O + CC(C)O
303.15 K, 101.33 kPa
Conditions	viscosity [mPa·s]
x1 = 0.068	15930 ± 1700
x1 = 0.1441	15440 ± 1600
x1 = 0.2157	15650 ± 1600
x1 = 0.2582	15980 ± 1700
x1 = 0.3391	16860 ± 1800
x1 = 0.4088	17920 ± 1900
x1 = 0.4524	18630 ± 2000
x1 = 0.5136	19840 ± 2200
x1 = 0.5952	21830 ± 2400
x1 = 0.6857	24330 ± 2800
x1 = 0.7556	26840 ± 3100
x1 = 0.8417	30570 ± 3600
x1 = 0.9259	35180 ± 4300

CC(C)CC(C)O (stereo not given) + CCO
298.15 K, 101.33 kPa
Conditions	viscosity [mPa·s]
x2 = 0.1103	3.682 ± 0.029
x2 = 0.2012	3.495 ± 0.028
x2 = 0.3207	3.131 ± 0.025
x2 = 0.4152	2.817 ± 0.022
x2 = 0.5152	2.487 ± 0.02
x2 = 0.6098	2.16 ± 0.017
x2 = 0.7078	1.883 ± 0.015
x2 = 0.8008	1.6 ± 0.013
x2 = 0.8981	1.342 ± 0.011

C1CCCCCCC1 + CCCCCCCCCC
viscosity [mPa·s], 101 kPa
Conditions	x1 = 0.0657	x1 = 0.1971	x1 = 0.282	x1 = 0.386	x1 = 0.508	x1 = 0.5849	x1 = 0.7031	x1 = 0.7984	x1 = 0.9053
308.15 K	0.7647 ± 0.013	0.829 ± 0.014	0.881 ± 0.015	0.9331 ± 0.015	1.026 ± 0.017	1.093 ± 0.018	1.213 ± 0.019	1.345 ± 0.021	1.55 ± 0.025
313.15 K	0.7178 ± 0.012	0.7776 ± 0.013	0.819 ± 0.014	0.8631 ± 0.014	0.9523 ± 0.016	1.006 ± 0.016	1.12 ± 0.018	1.24 ± 0.02	1.406 ± 0.022

CCCCC(=O)OCC + CCCCCCO
viscosity [mPa·s], 101.33 kPa
Conditions	x1 = 0.1071	x1 = 0.2022	x1 = 0.3018	x1 = 0.3929	x1 = 0.5117	x1 = 0.6028	x1 = 0.7035	x1 = 0.8025	x1 = 0.9053
293.15 K	3.938 ± 0.05	3.209 ± 0.043	2.61 ± 0.037	2.177 ± 0.032	1.74 ± 0.028	1.483 ± 0.025	1.258 ± 0.023	1.086 ± 0.021	0.946 ± 0.02
303.15 K	3.004 ± 0.041	2.46 ± 0.035	2.012 ± 0.03	1.688 ± 0.027	1.362 ± 0.024	1.17 ± 0.022	1.002 ± 0.02	0.873 ± 0.019	0.769 ± 0.018
313.15 K	2.257 ± 0.033	1.873 ± 0.029	1.558 ± 0.026	1.329 ± 0.023	1.1 ± 0.021	0.964 ± 0.02	0.846 ± 0.019	0.755 ± 0.018	0.682 ± 0.017

CC(C)CC(C)O (stereo not given) + CO
298.15 K, 101.33 kPa
Conditions	viscosity [mPa·s]
x2 = 0.1191	3.504 ± 0.032
x2 = 0.2078	3.263 ± 0.03
x2 = 0.3157	2.847 ± 0.026
x2 = 0.4359	2.297 ± 0.021
x2 = 0.5125	1.958 ± 0.018
x2 = 0.6519	1.459 ± 0.014
x2 = 0.7023	1.297 ± 0.012
x2 = 0.8038	1.002 ± 0.0096
x2 = 0.9042	0.7423 ± 0.0073

CCCCCCCCCCCCCC[P+](CCCCCC)(CCCCCC)CCCCCC.c1ccc2[n-]nnc2c1 + O
Conditions	viscosity [mPa·s]
298.15 K, 100 kPa, x2 = 0.728	181 ± 6

CCCCC + CC(C)(C)O
viscosity [mPa·s], 101 kPa
Conditions	x1 = 0.1023	x1 = 0.2048	x1 = 0.3056	x1 = 0.407	x1 = 0.5068	x1 = 0.606	x1 = 0.7043	x1 = 0.8042	x1 = 0.902
293.15 K	1.891 ± 0.62	1.128 ± 0.47	0.88 ± 0.42	0.771	0.657	0.485	0.373	0.32	0.281
303.15 K	1.992 ± 0.64	1.162 ± 0.48	1.011 ± 0.45	1.064 ± 0.46	0.954 ± 0.44	0.769	0.616	0.49	0.36
313.15 K	1.996 ± 0.64	1.211 ± 0.49	1.298 ± 0.51	1.282 ± 0.5	1.182 ± 0.48	1.012 ± 0.45	0.832 ± 0.41	0.625	0.455

[Cl-].[Cl-].[Sr+2] + O
Conditions	viscosity [mPa·s]
293.15 K, 100 kPa, x1 = 0.0048	1.08 ± 0.036
293.15 K, 100 kPa, x1 = 0.01	1.172 ± 0.038
293.15 K, 100 kPa, x1 = 0.016	1.283 ± 0.042
293.15 K, 100 kPa, x1 = 0.0302	1.607 ± 0.053
293.15 K, 100 kPa, x1 = 0.0452	2.065 ± 0.068
293.15 K, 101.3 kPa, x1 = 0.0009	1.018 ± 0.022
293.15 K, 101.3 kPa, x1 = 0.0018	1.032 ± 0.022
293.15 K, 101.3 kPa, x1 = 0.00893	1.146 ± 0.024
293.15 K, 101.3 kPa, x1 = 0.0177	1.312 ± 0.028
293.15 K, 101.3 kPa, x1 = 0.02631	1.515 ± 0.032
293.15 K, 101.3 kPa, x1 = 0.03478	1.722 ± 0.036
293.15 K, 101.3 kPa, x1 = 0.0431	1.994 ± 0.042
298.15 K, 100 kPa, x1 = 0.0048	0.9628 ± 0.032
298.15 K, 100 kPa, x1 = 0.01	1.048 ± 0.034
298.15 K, 100 kPa, x1 = 0.016	1.152 ± 0.038
298.15 K, 100 kPa, x1 = 0.0302	1.447 ± 0.047
298.15 K, 100 kPa, x1 = 0.0452	1.862 ± 0.061
298.15 K, 101.3 kPa, x1 = 0.0009	0.9055 ± 0.019
298.15 K, 101.3 kPa, x1 = 0.0018	0.9188 ± 0.02
298.15 K, 101.3 kPa, x1 = 0.00893	1.025 ± 0.022
298.15 K, 101.3 kPa, x1 = 0.0177	1.179 ± 0.025
298.15 K, 101.3 kPa, x1 = 0.02631	1.364 ± 0.029
298.15 K, 101.3 kPa, x1 = 0.03478	1.552 ± 0.033
298.15 K, 101.3 kPa, x1 = 0.0431	1.797 ± 0.038
303.15 K, 101.3 kPa, x1 = 0.0009	0.8117 ± 0.017
303.15 K, 101.3 kPa, x1 = 0.0018	0.8241 ± 0.017
303.15 K, 101.3 kPa, x1 = 0.00893	0.9228 ± 0.02
303.15 K, 101.3 kPa, x1 = 0.0177	1.065 ± 0.023
303.15 K, 101.3 kPa, x1 = 0.02631	1.236 ± 0.026
303.15 K, 101.3 kPa, x1 = 0.03478	1.408 ± 0.03
303.15 K, 101.3 kPa, x1 = 0.0431	1.63 ± 0.034
308.15 K, 101.3 kPa, x1 = 0.0009	0.7325 ± 0.015
308.15 K, 101.3 kPa, x1 = 0.0018	0.7443 ± 0.016
308.15 K, 101.3 kPa, x1 = 0.00893	0.8365 ± 0.018
308.15 K, 101.3 kPa, x1 = 0.0177	0.9688 ± 0.02
308.15 K, 101.3 kPa, x1 = 0.02631	1.127 ± 0.024
308.15 K, 101.3 kPa, x1 = 0.03478	1.284 ± 0.027
308.15 K, 101.3 kPa, x1 = 0.0431	1.487 ± 0.031
313.2 K, 100 kPa, x1 = 0.0302	1.096 ± 0.036
313.56 K, 100 kPa, x1 = 0.0048	0.7071 ± 0.023
313.9 K, 100 kPa, x1 = 0.01	0.7701 ± 0.025
314.54 K, 100 kPa, x1 = 0.0452	1.374 ± 0.045
315.86 K, 100 kPa, x1 = 0.016	0.8261 ± 0.027
318.15 K, 101.3 kPa, x1 = 0.0009	0.6082 ± 0.013
318.15 K, 101.3 kPa, x1 = 0.0018	0.6186 ± 0.013
318.15 K, 101.3 kPa, x1 = 0.00893	0.6997 ± 0.015
318.15 K, 101.3 kPa, x1 = 0.0177	0.8151 ± 0.017
318.15 K, 101.3 kPa, x1 = 0.02631	0.9514 ± 0.02
318.15 K, 101.3 kPa, x1 = 0.03478	1.086 ± 0.023
318.15 K, 101.3 kPa, x1 = 0.0431	1.258 ± 0.026

CCN(CC)S(C)(=O)=O + CC(C)(C)O
303.15 K, 101.33 kPa
Conditions	viscosity [mPa·s]
x1 = 0.0764	28570 ± 3400
x1 = 0.1463	26300 ± 3100
x1 = 0.2364	24820 ± 2900
x1 = 0.3171	24370 ± 2800
x1 = 0.3944	24530 ± 2800
x1 = 0.4712	25010 ± 2900
x1 = 0.5369	25790 ± 3000
x1 = 0.6062	26640 ± 3100
x1 = 0.6888	27960 ± 3300
x1 = 0.7621	30100 ± 3600
x1 = 0.8534	33040 ± 4000
x1 = 0.9381	36570 ± 4500

CCN(CC)S(C)(=O)=O + CCCO
303.15 K, 101.33 kPa
Conditions	viscosity [mPa·s]
x1 = 0.0661	16100 ± 1700
x1 = 0.1423	15830 ± 1700
x1 = 0.2148	16120 ± 1700
x1 = 0.3057	16930 ± 1800
x1 = 0.3821	17930 ± 1900
x1 = 0.4421	18840 ± 2000
x1 = 0.5219	20390 ± 2200
x1 = 0.5944	22040 ± 2500
x1 = 0.685	24610 ± 2800
x1 = 0.7587	27160 ± 3200
x1 = 0.8085	29250 ± 3500
x1 = 0.8907	33340 ± 4000

OC1CCCCC1 + Cc1ccccc1Cl
303.15 K, 101 kPa
Conditions	viscosity [mPa·s]
x1 = 0.1104	4.861 ± 0.58
x1 = 0.2183	8.854 ± 1.1
x1 = 0.3237	12.93 ± 1.6
x1 = 0.4268	17.06 ± 2.1
x1 = 0.5276	21.22 ± 2.6
x1 = 0.6262	25.36 ± 3.1
x1 = 0.7227	29.4 ± 3.6
x1 = 0.8171	33.34 ± 4
x1 = 0.9095	37.22 ± 4.5

CS(C)=O + c1ccccc1
viscosity [mPa·s], 101.3 kPa
Conditions	x1 = 0.1043	x1 = 0.2048	x1 = 0.3059	x1 = 0.4069	x1 = 0.5105	x1 = 0.6085	x1 = 0.7063	x1 = 0.8049	x1 = 0.9029
298.15 K	0.669 ± 0.018	0.743 ± 0.02	0.829 ± 0.021	0.923 ± 0.023	1.036 ± 0.026	1.169 ± 0.029	1.317 ± 0.032	1.492 ± 0.036	1.712 ± 0.041
303.15 K	0.622 ± 0.017	0.69 ± 0.018	0.766 ± 0.02	0.853 ± 0.022	0.955 ± 0.024	1.071 ± 0.027	1.207 ± 0.03	1.367 ± 0.033	1.562 ± 0.038
308.15 K	0.581 ± 0.016	0.643 ± 0.017	0.714 ± 0.019	0.796 ± 0.021	0.884 ± 0.023	0.99 ± 0.025	1.111 ± 0.028	1.258 ± 0.031	1.426 ± 0.035

Source: the CheMixHub viscosity set
